# From paper PMC6862331, “Identification of Isoform-Selective Ligands for the Middle Domain of Heat Shock Protein 90 (Hsp90)” (International Journal of Molecular Sciences, 2019)
# Values joined by “and” are separate entries in the source; they are usually repeats but may differ in a detail not shown here. Equal values may be shown once. “Also recorded” adds a separate entry of the source. Read-outs that look alike come from different tables or passages of the source.
# Experiments:
# [1] = biological target: T1, recombinant human Hsp90α MD (Homo sapiens, UniProt P07900); test: Intrinsic tryptophan fluorescence spectroscopy (quenching screen and KD titration) with Hsp90α MD; assay type: binding; details: for binding to Hsp90α MD in initial screening: less than 40% quenching eliminated
# T1 construct: made in house; host or cells: Escherichia coli BL21 (DE3)
# Excerpt: (§1) As a result of virtual screening, 24 hit compounds (Figure 1 and Table S3) were selected for further experimental testing against recombinant human Hsp90α MD (residues 294 to 554, Table S4) and human Hsp90β MD (residues 286 to 546, Table S5). As there are tryptophan residues located within the defined binding pocket in both Hsp90α MD and Hsp90β MD, intrinsic tryptophan fluorescence quenching experiment was used to screen the binding of our virtual hits to the proteins. Initial screening experiments were conducted by using 20 μM of Hsp90α/β MD and 1 mM of compounds. Molecules that gave less than 40% fluorescence quenching were eliminated.
# (§2) We then focussed on studying the binding of our compounds (5, 8, 9, 10, 12, 17, 22, 24) to both Hsp90α MD and Hsp90β MD. Titration experiments were performed to quantify the binding affinity (dissociation constant, KD) to Hsp90α MD and Hsp90β MD (Table 1 and Figures S3–S10). The KD values of gambogic acid were also measured as control (Table 1 and Figure S11). […] Our KD values for gambogic acid are in agreement with previous studies (~10-fold preference). The selectivity for the β-isoform (over α-isoforms) was progressively less for weaker binders.
# (§3) Fluorescence was measured using EnSpire Multimode Plate Reader (PerkinElmer, Melbourne, Australia). Experiments were performed in 20 µM of Hsp90 MD in 20 mM Tris (pH 7.5) and 0.2 M KCl. Different concentration of the virtual hits (InterBioScreen, Bar, Montenegro) or gambogic acid were added to the mixture. Excitation wavelength was 280 nm and intrinsic fluorescence was measured between 300 and 450 nm. The control experiment with Hsp90 MD on its own was conducted. Background fluorescence arising from the compound was subtracted to generate the final spectrum. The total volume per well of the 96-well microplate was 30 µL. Non-linear curve fitting of Equation (1) to the data was conducted using SigmaPlot 14.0 (Systat Software, San Jose, CA, USA). All tests were conducted in triplicate and the errors shown are standard deviation. KD was calculated for each binder using Equation (1), where Δobs is the changes in fluorescence intensity from the titrations, Δmax is the maximum fluorescence intensity change, [LT] represents the titrated ligand concentration, and [PT] indicates the protein concentration.
# (§4) (1) Δobs=Δmax×(KD+[LT]+[PT])−(KD+[LT]+[PT])^2−(4×[PT]×[LT])/2×[PT]
# (§5) Supplementary Figure S2. Screening of the virtual hits (1 mM) to Hsp90α/β MD (20 μM) by intrinsic protein fluorescence. Percentage fluorescence quenching was calculated with the […]
# (§6) % Fluorescence quenching = (Iprotein − Iprotein+compound) […]
# (§7) In which Iprotein denotes intrinsic fluorescence intensity of the protein in the absence of any compound, Iprotein+compound denotes intrinsic fluorescence intensity of the protein in the presence of the compound. Experiments were conducted in triplicate. Errors shown are standard […]
# (§8) (1 picture or pasted object on this page, not shown here)
# [2] = biological target: T2, recombinant human Hsp90β MD (Homo sapiens, UniProt P08238); test: Intrinsic tryptophan fluorescence spectroscopy (quenching screen and KD titration) with Hsp90β MD; assay type: binding; details: for binding to Hsp90β MD in initial screening: less than 40% quenching eliminated; for Kd: titration, 20 µM Hsp90 MD, 20 mM Tris pH 7.5, 0.2 M KCl, triplicate, error = SD; for selectivity (preference) for the β-isoform over the α-isoform in terms of KD: Hsp90β MD vs Hsp90α MD
# T2 construct: made in house; host or cells: Escherichia coli BL21 (DE3)
# T2 sequence (P08238 286-546): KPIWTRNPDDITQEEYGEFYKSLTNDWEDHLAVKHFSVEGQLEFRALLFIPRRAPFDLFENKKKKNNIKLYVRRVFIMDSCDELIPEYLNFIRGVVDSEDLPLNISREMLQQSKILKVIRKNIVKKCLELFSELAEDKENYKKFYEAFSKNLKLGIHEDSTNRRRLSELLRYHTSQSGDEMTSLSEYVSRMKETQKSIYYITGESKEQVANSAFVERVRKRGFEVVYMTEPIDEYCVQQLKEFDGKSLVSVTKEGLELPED
# Excerpt: as §1, §2, §3, §4, §5, §6, §7, §8
# [3] = biological target: T2, recombinant human Hsp90β MD; parameters: method as in PMID 27466407; details: cited from earlier work
# [4] = titration, 20 µM Hsp90 MD, 20 mM Tris pH 7.5, 0.2 M KCl, triplicate, error = SD, read-out: KD to Hsp90α MD
# [5] = initial screen, 1 mM compound, 20 μM protein
Structure (SMILES),"binding to Hsp90α MD in initial screening ([1]; 1 mM compound, 20 μM protein)","Kd [1, 4]","binding to Hsp90β MD in initial screening ([2]; 1 mM compound, 20 μM protein)",Kd ([2]; read-out: KD to Hsp90β MD),selectivity (preference) for the β-isoform over the α-isoform in terms of KD [2],Kd [1],"fluorescence quenching of Hsp90α MD [1, 5]",Kd ([2]; KD to Hsp90β MD),"fluorescence quenching of Hsp90β MD [2, 5]","preference for Hsp90β MD over Hsp90α MD, previous study [3]"
"CCC(C)[C@@H](NC(=O)C(C)Oc1ccc2c(-c3ccccc3)cc(=O)oc2c1)C(=O)O (stereo partly drawn) [Compound 9, (2R)-3-methyl-2-(2-((2-oxo-4-phenyl-2H-chromen-7-yl)oxy)propanamido)pentanoic acid]",bind to both Hsp90α MD and Hsp90β MD,299 ± 3 µM,bind to both Hsp90α MD and Hsp90β MD,57 ± 1 µM,,,,,,
"COc1cc(C2NC(C(=O)O)Cc3c2[nH]c2ccc(OCc4ccccc4)cc32)cc(OC)c1OC (centres unmarked) [Compound 24, 6-(benzyloxy)-1-(3,4,5-trimethoxyphenyl)-2,3,4,9-tetrahydro-1H-pyrido[3,4-b]indole-3-carboxylic acid]",bind to both Hsp90α MD and Hsp90β MD,661 ± 3 µM,bind to both Hsp90α MD and Hsp90β MD,> 100 µM and 265 µM,bind stronger to Hsp90β MD than to Hsp90α MD,,,,,
"COc1cc(C(=O)NC(Cc2ccccc2)C(=O)O)cc(OC)c1OC (centres unmarked) [Compound 22, (3,4,5-trimethoxybenzoyl)phenylalanine]",bind to both Hsp90α MD and Hsp90β MD,459 ± 7 µM,bind to both Hsp90α MD and Hsp90β MD,> 500 µM,slight preference for Hsp90α MD,,,,,
"O=C(CC1=C(O)C(=O)c2ccccc2C1=O)c1ccccc1 [Compound 12, 2-hydroxy-3-(2-oxo-2-phenylethyl)naphthalene-1,4-dione]",bind to both Hsp90α MD and Hsp90β MD,92 ± 0.8 µM,bind to both Hsp90α MD and Hsp90β MD,< 20 µM,bind stronger to Hsp90β MD than to Hsp90α MD; also recorded: seven-fold,,,,,
"CC(=O)N[C@H]1[C@H](Oc2ccc3c(=O)c(-c4ccc5c(c4)OCCCO5)c(C)oc3c2)O[C@H](CO)[C@@H](O)[C@@H]1O [Compound 17, N-((2S,3R,4R,5S,6R)-2-((3-(3,4-dihydro-2H-benzo[b][1,4]dioxepin-7-yl)-2-methyl-4-oxo-4H-chromen-7-yl)oxy)-4,5-dihydroxy-6-(hydroxymethyl)tetrahydro-2H-pyran-3-yl)acetamide]",bind to both Hsp90α MD and Hsp90β MD,506 ± 4 µM,bind to both Hsp90α MD and Hsp90β MD,> 100 µM and 285 µM,bind stronger to Hsp90β MD than to Hsp90α MD,,,,,
"CN[C@H]1CCc2cc(OC)c(OC)c(OC)c2-c2ccc(NCc3cccnc3)c(=O)cc21 [Compound 10, (S)-1,2,3-trimethoxy-7-(methylamino)-10-((pyridin-3-ylmethyl)amino)-6,7-dihydrobenzo[a]heptalen-9(5H)-one]",,,,,bind stronger to Hsp90β MD than to Hsp90α MD,> 500 µM,~ 20%,> 100 µM and 164 µM,~ 90%,
"CCC[C@@H](NC(=O)C(C)Oc1ccc2c(-c3ccccc3)cc(=O)oc2c1)C(=O)O (stereo partly drawn) [Compound 5, (2R)-2-(2-((2-oxo-4-phenyl-2H-chromen-7-yl)oxy)propanamido)pentanoic acid]",bind to both Hsp90α MD and Hsp90β MD,470 ± 2 µM,bind to both Hsp90α MD and Hsp90β MD,136 ± 1 µM,,,,,,
"O=C(CNC(=O)OCc1ccccc1)Oc1cc(O)c2c(=O)cc(-c3ccccc3)oc2c1 [Compound 8, 5-hydroxy-4-oxo-2-phenyl-4H-chromen-7-yl ((benzyloxy)carbonyl)glycinate]",bind to both Hsp90α MD and Hsp90β MD,284 ± 4 µM,bind to both Hsp90α MD and Hsp90β MD,> 500 µM,slight preference for Hsp90α MD,,,,,
"CC(C)=CCC[C@]1(C)C=Cc2c(O)c3c(c(CC=C(C)C)c2O1)O[C@]12C(=C[C@@H]4C[C@H]1C(C)(C)O[C@@]2(C/C=C(/C)C(=O)O)C4=O)C3=O [Gambogic acid, reference compound]",,195 ± 5 µM,,33 ± 2 µM,,,,,,~ 7 fold
